# From ChEMBL document CHEMBL3091358, “Structures of human acetylcholinesterase bound to dihydrotanshinone I and territrem B show peripheral site flexibility” (ACS Med Chem Lett, 2013)
# What was measured:
# Acetylcholinesterase [1] = target: T1, Acetylcholinesterase (Homo sapiens, UniProt P22303); assay: Inhibition of acetylcholinesterase (unknown origin)
# Acetylcholinesterase [2] = target: T1, Acetylcholinesterase; assay: Inhibition of human acetylcholinesterase
# T1 sequence (P22303 whole entry): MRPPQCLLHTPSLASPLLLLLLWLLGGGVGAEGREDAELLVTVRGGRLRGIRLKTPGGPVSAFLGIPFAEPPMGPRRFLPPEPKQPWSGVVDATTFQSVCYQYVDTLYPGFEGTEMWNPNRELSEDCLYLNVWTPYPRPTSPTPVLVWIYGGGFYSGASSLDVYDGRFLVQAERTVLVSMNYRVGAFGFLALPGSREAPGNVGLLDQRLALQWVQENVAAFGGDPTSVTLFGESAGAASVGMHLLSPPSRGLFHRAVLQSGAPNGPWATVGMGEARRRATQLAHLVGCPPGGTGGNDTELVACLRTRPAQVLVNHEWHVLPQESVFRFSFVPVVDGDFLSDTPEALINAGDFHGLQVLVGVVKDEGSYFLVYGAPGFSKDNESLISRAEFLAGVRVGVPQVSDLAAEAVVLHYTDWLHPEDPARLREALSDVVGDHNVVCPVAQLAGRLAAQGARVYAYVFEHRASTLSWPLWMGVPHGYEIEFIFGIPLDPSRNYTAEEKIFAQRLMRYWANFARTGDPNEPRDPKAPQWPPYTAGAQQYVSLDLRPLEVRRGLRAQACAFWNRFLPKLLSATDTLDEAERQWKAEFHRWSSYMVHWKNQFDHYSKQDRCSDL
structure (smiles),measurement,setting,value
Cc1coc2c1C(=O)C(=O)c1c-2ccc2c1CCCC2(C)C [TANSHINONE IIA],IC50,Acetylcholinesterase [1],> 140 µM
Cc1coc2c1C(=O)C(=O)c1c-2ccc2c(C)cccc12 [TANSHINONE I],IC50,Acetylcholinesterase [1],> 50 µM
Cc1cccc2c3c(ccc12)C1=C(C(=O)C3=O)[C@@H](C)CO1 [DIHYDROTANSHINONE I],IC50,Acetylcholinesterase [1],1 µM
same,Ki,Acetylcholinesterase [2],0.6 µM
